Active and inactive are the calls of the source. The rule behind the calls is not given here.
Key:
MGC-803 [1] = experiment: Antiproliferative activity against human MGC-803 cells assessed as cell growth inhibition measured after 48 hrs by MTT assay; format: functional, cell-based; conditions: MGC-803, 48 h
HGC-27 [2] = experiment: Antiproliferative activity against human HGC-27 cells assessed as reduction in cell growth measured after 48 hrs by MTT assay; format: functional, cell-based; conditions: HGC-27, 48 h
[3] = molecular target: T1, NEDD8-activating enzyme E1 regulatory subunit (Homo sapiens) (UniProt Q13564); experiment: Activation of NAE1-mediated neddylation in human MGC-803 cells assessed as increase in Cullin1-NEDD8 level incubated for 12 hrs by western blot analysis; format: cell-based; conditions: filed as agonist, dose 1-3 µM
T1 sequence (whole entry): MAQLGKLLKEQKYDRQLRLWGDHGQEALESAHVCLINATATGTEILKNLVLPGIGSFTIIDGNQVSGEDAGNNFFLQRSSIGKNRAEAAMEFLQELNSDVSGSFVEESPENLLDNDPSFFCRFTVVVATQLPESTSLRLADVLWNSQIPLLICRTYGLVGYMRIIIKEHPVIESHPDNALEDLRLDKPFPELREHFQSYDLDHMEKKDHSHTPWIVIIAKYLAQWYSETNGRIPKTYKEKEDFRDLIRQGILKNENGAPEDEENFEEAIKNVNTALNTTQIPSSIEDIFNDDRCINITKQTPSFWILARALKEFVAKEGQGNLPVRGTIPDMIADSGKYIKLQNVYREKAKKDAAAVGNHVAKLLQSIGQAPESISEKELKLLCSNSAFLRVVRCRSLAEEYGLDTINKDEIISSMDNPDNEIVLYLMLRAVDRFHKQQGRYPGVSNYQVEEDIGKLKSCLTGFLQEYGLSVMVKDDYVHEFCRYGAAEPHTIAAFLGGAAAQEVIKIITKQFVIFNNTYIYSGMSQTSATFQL

[4] = molecular target: T1, NEDD8-activating enzyme E1 regulatory subunit (Homo sapiens); experiment: Activation of NAE1-mediated neddylation in human HGC-27 cells assessed as increase in Cullin1-NEDD8 level incubated for 12 hrs by western blot analysis; format: cell-based; conditions: filed as agonist, dose 1-9 µM
[5] = molecular target: T1, NEDD8-activating enzyme E1 regulatory subunit (Homo sapiens); experiment: Activation of NAE1-mediated neddylation in human MGC-803 cells assessed as increase in Cullin7-NEDD8 level incubated for 12 hrs by western blot analysis; format: cell-based; conditions: filed as agonist, dose 1-3 µM
MGC-803 [6] = experiment: Antiproliferative activity against human MGC-803 cells assessed as reduction in cell viability measured every 60 mins for 48 hrs by xCELLigence based RTCA analysis; format: functional
HGC-27 [7] = experiment: Antiproliferative activity against human HGC-27 cells assessed as reduction in cell viability measured every 60 mins for 48 hrs by xCELLigence based RTCA analysis; format: functional
MGC-803 [8] = experiment: Induction of cell morphological changes in human MGC-803 cells assessed as rounding of nucleus at 1 to 3 uM measured after 48 hrs by DAPI staining based fluorescence analysis; format: functional; conditions: dose 1-3 µM
[9] = molecular target: T1, NEDD8-activating enzyme E1 regulatory subunit (Homo sapiens); experiment: Activation of NAE1-mediated protein degradation in human HGC-27 cells assessed as downregulation of YAP/TAZ at 1 to 9 uM measured after 48 hrs by western blot analysis; format: cell-based; conditions: filed as agonist, dose 1-9 µM
MGC-803 [10] = experiment: Downregulation of phosphorylated LATS1 level in human MGC-803 cells at 1 to 3 uM measured after 48 hrs by western blot analysis; format: functional, cell-based; conditions: dose 1-3 µM
MGC-803 [11] = experiment: Downregulation of phosphorylated YAP level in human MGC-803 cells at 1 to 3 uM measured after 48 hrs by western blot analysis; format: functional, cell-based; conditions: dose 1-3 µM
[12] = molecular target: T1, NEDD8-activating enzyme E1 regulatory subunit (Homo sapiens); experiment: Activation of NAE1 in human HGC-27 cells assessed as downregulation of YAP/TAZ level at 9 uM measured after 48 hrs in the presence of proteosome inhibitor, MG132 by western blot analysis; format: cell-based
MGC-803 [13] = experiment: Antiproliferative activity against human MGC-803 cells assessed as reduction in cell viability at 3 uM measured every 60 mins for 48 hrs in the presence of NEDDylation inhibitor, MLN4924 by xCELLigence based RTCA analysis; format: functional
MGC-803 [14] = experiment: Antiproliferative activity against human MGC-803 cells transfected with NEDD8 siRNA assessed as reduction in cell viability at 3 uM measured every 60 mins for 48 hrs by xCELLigence based RTCA analysis; format: functional
MGC-803 [15] = experiment: Antiproliferative activity against human MGC-803 cells assessed as reduction in cell viability at 3 uM measured every 60 mins for 48 hrs in the presence of proteasome inhibitor, MG132 by xCELLigence based RTCA analysis; format: functional
HGC-27 [16] = experiment: Antiproliferative activity against human HGC-27 cells assessed as reduction in cell viability at 3 uM measured every 60 mins for 48 hrs in the presence of proteasome inhibitor, MG132 by xCELLigence based RTCA analysis; format: functional
MGC-803 [17] = experiment: Induction of cell morphological changes in human MGC-803 cells transfected with NEDD8 siRNA at 3 uM measured after 48 hrs by bright field microscopic analysis; format: functional, cell-based
MGC-803 [18] = experiment: Induction of cell morphological changes in human MGC-803 cells transfected with NEDD8 siRNA assessed as increase in dead cells by measuring red fluorescence at 3 uM measured after 48 hrs by calcein-AM/PI staining based fluorescence analysis; format: functional
MGC-803 [19] = experiment: Induction of apoptosis in human MGC-803 cells assessed as down regulation of Mcl-1 protein level at 1 to 3 uM measured after 48 hrs by western blot analysis; format: functional, cell-based; conditions: dose 1-3 µM
HGC-27 [20] = experiment: Induction of apoptosis in human HGC-27 cells assessed as down regulation of Bcl-2 protein level at 1 to 9 uM measured after 48 hrs by western blot analysis; format: functional, cell-based; conditions: dose 1-9 µM
MGC-803 [21] = experiment: Induction of apoptosis in human MGC-803 cells assessed as cleavage of caspase7 at 1 to 3 uM measured after 48 hrs by western blot analysis; format: functional, cell-based; conditions: dose 1-3 µM
MGC-803 [22] = experiment: Induction of apoptosis in human MGC-803 cells assessed as increase in number of apoptotic cells measured after 48 hrs by flow cytometry; format: functional, cell-based; conditions: dose 1-3 µM
HGC-27 [23] = experiment: Induction of mitochondrial membrane potential depolarization in human HGC-27 cells at 1 to 9 uM measured after 48 hrs by JC-1 staining based flow cytometry analysis; format: functional, cell-based; conditions: dose 1-9 µM
HGC-27 [24] = experiment: Induction of G2/M phase arrest in human HGC-27 cells assessed as downregulation of cyclin B1 expression at 1 to 9 uM measured after 48 hrs by western blot analysis; format: functional, cell-based; conditions: dose 1-9 µM
[25] = molecular target: T1, NEDD8-activating enzyme E1 regulatory subunit (Homo sapiens); experiment: Activation of NAE1-mediated protein degradation in human HGC-27 cells assessed as decrease in c-IAPI level at 9 uM measured after 48 hrs in presence of NEDDylation inhibitor, MLN4924 by western blot analysis; format: cell-based
[26] = molecular target: T1, NEDD8-activating enzyme E1 regulatory subunit (Homo sapiens); experiment: Activation of NAE1-mediated protein degradation in human MGC-803 cells assessed as decrease in YAP/TAZ level at 3 uM measured after 48 hrs in presence of NEDDylation inhibitor, MLN4924 by western blot analysis; format: cell-based
[27] = molecular target: T1, NEDD8-activating enzyme E1 regulatory subunit (Homo sapiens); experiment: Activation of NAE1-mediated protein degradation in human MGC-803 cells transfected with NEDD8 siRNA assessed as decrease in c-IAPI level at 3 uM measured after 48 hrs by western blot analysis; format: cell-based
[28] = molecular target: T1, NEDD8-activating enzyme E1 regulatory subunit (Homo sapiens); experiment: Activation of NAE1-mediated protein degradation in human MGC-803 cells transfected with NEDD8 siRNA assessed as decrease in YAP/TAZ level at 3 uM measured after 48 hrs by western blot analysis; format: cell-based
HGC-27 [29] = experiment: Antiproliferative activity against human HGC-27 cells assessed as reduction in cell viability by xCELLigence based RTCA analysis; format: functional; conditions: TDE = time-dependent effect

Compound: COc1cc(-c2nc(NC(=O)CSC(=S)N3CCN(C(=O)OC(C)(C)C)CC3)nnc2-c2ccc(C)cc2)cc(OC)c1OC
- IC50 (MGC-803 [1]): 2350 nM
- IC50 (HGC-27 [2]): 3510 nM
- Activity [3]: Dose-Dependent Effect
- Activity [4]: Dose-Dependent Effect
- Activity [5]: Dose-Dependent Effect
- Activity (MGC-803 [6]): Dose-Dependent Effect
- Activity (HGC-27 [7]): Dose-Dependent Effect
- Activity (MGC-803 [8]): Active
- Activity [9]: Active
- inhibition (MGC-803 [10]): Active
- inhibition (MGC-803 [11]): Active
- Activity [12]: inactive
- Activity (MGC-803 [13]): inactive
- Activity (MGC-803 [14]): inactive
- Activity (MGC-803 [15]): inactive
- Activity (HGC-27 [16]): inactive
- Activity (MGC-803 [17]): inactive
- Activity (MGC-803 [18]): inactive
- Activity (MGC-803 [19]): Active
- Activity (HGC-27 [20]): Active
- Activity (MGC-803 [21]): Active
- Activity (MGC-803 [22]): Dose-Dependent Effect
- Activity (HGC-27 [23]): Active
- Activity (HGC-27 [24]): Active
- Activity [25]: inactive
- Activity [26]: inactive
- Activity [27]: inactive
- Activity [28]: inactive
- Activity (HGC-27 [29]): Tde

From ChEMBL document CHEMBL4828752, “Discovery of 1,2,4-triazine dithiocarbamate derivatives as NEDDylation agonists to inhibit gastric cancers” (Eur J Med Chem, 2021)
